Laboratory results taken from ChEMBL document CHEMBL5726860, “Phthalazinones and isoquinolinones as rock inhibitors” (2018).

Legend:
[1] = target: Rho-associated protein kinase 2 (Homo sapiens, UniProt O75116); assay: (§1) In Vitro Assay: The effectiveness of compounds of the present invention as ROCK inhibitors can be determined in a 30 μL assay containing 20 mM HEPES, pH 7.5, 20 mM MgCl2, 0.015% Brij-35, 4 mM DTT, 5 μM ATP and 1.5 μM peptide substrate (FITC-AHA-[…]-OH). Compounds were dissolved in DMSO so that the final concentration of DMSO was <2%, and the reaction was initiated with Rho kinase variants. After incubation, the reaction was terminated by the addition of EDTA and the phosphorylated and non-phosphorylated peptides separated using a LABCHIP® 3000 Reader (Caliper Life Sciences). […] Compounds were tested in dose-response format, and the inhibition of kinase activity was calculated at each concentration of compound. The inhibition data were fit using a curve-fitting program to determine the IC50; i.e., the concentration of compound required to inhibit 50% of kinase activity.
Sequence of Rho-associated protein kinase 2 (O75116 whole entry, looked up, change not shown): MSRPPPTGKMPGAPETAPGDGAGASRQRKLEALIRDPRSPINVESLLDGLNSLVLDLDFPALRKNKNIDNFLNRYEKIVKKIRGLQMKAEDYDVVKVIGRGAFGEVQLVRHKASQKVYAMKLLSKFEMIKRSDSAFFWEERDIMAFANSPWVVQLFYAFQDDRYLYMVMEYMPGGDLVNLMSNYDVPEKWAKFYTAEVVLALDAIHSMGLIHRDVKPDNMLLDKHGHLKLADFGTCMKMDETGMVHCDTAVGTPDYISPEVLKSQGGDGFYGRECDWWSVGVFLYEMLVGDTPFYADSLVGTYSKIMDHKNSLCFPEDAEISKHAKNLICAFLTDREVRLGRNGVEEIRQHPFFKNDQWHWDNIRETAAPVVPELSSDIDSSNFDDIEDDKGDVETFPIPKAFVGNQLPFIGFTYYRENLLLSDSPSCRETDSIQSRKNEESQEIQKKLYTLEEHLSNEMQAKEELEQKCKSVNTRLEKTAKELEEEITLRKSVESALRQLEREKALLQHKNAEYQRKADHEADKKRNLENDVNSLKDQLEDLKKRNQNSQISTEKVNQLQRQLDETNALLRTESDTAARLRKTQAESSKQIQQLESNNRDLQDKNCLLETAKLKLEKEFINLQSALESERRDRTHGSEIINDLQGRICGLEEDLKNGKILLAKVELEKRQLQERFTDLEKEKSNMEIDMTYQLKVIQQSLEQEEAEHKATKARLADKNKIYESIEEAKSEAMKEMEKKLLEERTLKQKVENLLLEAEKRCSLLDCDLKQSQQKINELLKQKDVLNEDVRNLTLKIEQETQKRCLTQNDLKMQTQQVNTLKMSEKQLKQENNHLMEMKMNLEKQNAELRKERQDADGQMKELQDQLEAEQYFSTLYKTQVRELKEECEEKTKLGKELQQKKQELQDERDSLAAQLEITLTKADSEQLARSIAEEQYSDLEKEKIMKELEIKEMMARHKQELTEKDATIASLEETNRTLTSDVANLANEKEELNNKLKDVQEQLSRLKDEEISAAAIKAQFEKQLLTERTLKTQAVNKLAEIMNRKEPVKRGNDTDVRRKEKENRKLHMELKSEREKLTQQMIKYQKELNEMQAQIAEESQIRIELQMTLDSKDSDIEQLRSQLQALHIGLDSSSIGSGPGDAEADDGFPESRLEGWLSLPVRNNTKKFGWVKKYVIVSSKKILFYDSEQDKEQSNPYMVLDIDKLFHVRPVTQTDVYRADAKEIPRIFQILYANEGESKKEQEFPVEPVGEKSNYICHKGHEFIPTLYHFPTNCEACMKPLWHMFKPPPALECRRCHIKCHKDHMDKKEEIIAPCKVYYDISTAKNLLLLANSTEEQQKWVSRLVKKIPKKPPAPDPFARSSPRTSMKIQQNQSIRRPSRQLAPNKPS

[2] = target: Rho-associated protein kinase 1 (Homo sapiens, UniProt Q13464); assay: as §1
Sequence of Rho-associated protein kinase 1 (Q13464 2-1354 limits assumed, change not shown): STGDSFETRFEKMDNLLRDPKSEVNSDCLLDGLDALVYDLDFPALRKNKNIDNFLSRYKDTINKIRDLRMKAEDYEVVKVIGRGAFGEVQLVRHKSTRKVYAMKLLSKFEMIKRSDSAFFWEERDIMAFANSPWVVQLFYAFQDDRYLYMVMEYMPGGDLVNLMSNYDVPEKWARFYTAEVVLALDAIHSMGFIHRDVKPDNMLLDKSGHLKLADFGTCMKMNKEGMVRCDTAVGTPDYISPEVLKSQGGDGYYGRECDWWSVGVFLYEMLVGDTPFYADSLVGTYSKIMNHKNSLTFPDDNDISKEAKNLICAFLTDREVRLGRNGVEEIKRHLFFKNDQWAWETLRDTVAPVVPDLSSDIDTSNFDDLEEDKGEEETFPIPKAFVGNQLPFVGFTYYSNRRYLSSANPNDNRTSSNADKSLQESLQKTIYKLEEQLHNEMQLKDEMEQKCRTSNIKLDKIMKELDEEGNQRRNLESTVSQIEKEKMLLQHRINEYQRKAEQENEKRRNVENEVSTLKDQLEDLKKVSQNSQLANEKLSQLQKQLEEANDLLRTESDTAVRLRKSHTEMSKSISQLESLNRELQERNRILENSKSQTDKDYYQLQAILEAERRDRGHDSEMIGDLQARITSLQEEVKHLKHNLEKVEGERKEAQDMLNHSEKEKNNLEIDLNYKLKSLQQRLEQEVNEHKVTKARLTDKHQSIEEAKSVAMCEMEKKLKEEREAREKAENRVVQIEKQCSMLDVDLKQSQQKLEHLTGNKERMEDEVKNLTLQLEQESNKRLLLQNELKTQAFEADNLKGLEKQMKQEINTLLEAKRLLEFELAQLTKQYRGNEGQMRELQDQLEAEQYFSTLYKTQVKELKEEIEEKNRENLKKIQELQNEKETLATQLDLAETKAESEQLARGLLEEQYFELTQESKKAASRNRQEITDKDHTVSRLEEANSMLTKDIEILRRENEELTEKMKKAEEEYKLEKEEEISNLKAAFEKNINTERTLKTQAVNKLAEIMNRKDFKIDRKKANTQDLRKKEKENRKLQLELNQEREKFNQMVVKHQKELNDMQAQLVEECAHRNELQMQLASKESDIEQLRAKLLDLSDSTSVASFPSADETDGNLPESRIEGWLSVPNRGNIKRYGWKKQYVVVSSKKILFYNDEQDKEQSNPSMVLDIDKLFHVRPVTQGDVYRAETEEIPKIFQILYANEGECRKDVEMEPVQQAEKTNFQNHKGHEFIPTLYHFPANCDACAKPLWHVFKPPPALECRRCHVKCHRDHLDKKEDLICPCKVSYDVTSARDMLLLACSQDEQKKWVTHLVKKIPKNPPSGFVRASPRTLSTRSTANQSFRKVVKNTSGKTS

IC50 [1]	SMILES	IC50 [2]
< 100 nM	O=C(Nc1ccc(-c2n[nH]c(=O)c3ccccc23)cc1)c1cnn(C2CCS(=O)(=O)C2)c1 (stereo not drawn)	–
< 100 nM	O=C(Nc1ccc(-c2n[nH]c(=O)c3ccccc23)cc1)c1cnn(CC(F)(F)F)c1	–
< 100 nM	O=C(Nc1ccc(-c2n[nH]c(=O)c3ccccc23)cc1)c1cc2ncccn2n1	–
< 100 nM	O=C(Nc1ccc(-c2n[nH]c(=O)c3ccccc23)cc1)c1cn2ccnc(Cl)c2n1	–
< 100 nM	O=C(Nc1ccc(-c2n[nH]c(=O)c3ccccc23)cc1)c1cnn(CC(O)C(F)(F)F)c1 (stereo not drawn)	–
< 100 nM	O=C(Nc1ccc(-c2c[nH]c(=O)c3ccccc23)cc1)c1ccc(N2CCOCC2)cc1	–
< 100 nM	O=C(Nc1ccc(-c2n[nH]c(=O)c3ccccc23)cc1)c1cn[nH]c1	–
< 100 nM	O=c1[nH]nc(-c2ccc(Nc3nnc(-c4ccccc4)s3)cc2)c2ccccc12	–
< 100 nM	O=C(Nc1ccc(-c2n[nH]c(=O)c3ccccc23)cc1)c1cnn2ccc(OCCO)cc12	–
< 100 nM	O=C(Nc1ccc(-c2n[nH]c(=O)c3ccccc23)cc1)c1cnn(CC2CC2)c1	–

More lines, now with the values behind:

SMILES	IC50 [1]	IC50 [2]
CCCn1cc(C(=O)Nc2ccc(-c3n[nH]c(=O)c4ccccc34)cc2)cn1	< 100 nM	–
O=C(Nc1ccc(-c2n[nH]c(=O)c3ccccc23)cc1)c1cnn(CC(F)(F)C(F)F)c1	< 100 nM	–
O=C(Nc1ccc(-c2n[nH]c(=O)c3ccccc23)cc1)c1cnn(C2CCCC2)c1	< 100 nM	–
O=C(Nc1ccc(-c2n[nH]c(=O)c3ccccc23)c(Cl)c1)c1nn(CC2CNC2)c2ccccc12	< 100 nM	–
O=C(Cc1ccc(-c2c[nH]c(=O)c3ccccc23)c(F)c1)N1Cc2ccccc2C1	< 100 nM	–
O=C(Oc1ccc(-c2n[nH]c(=O)c3ccccc23)cc1)N1Cc2ccccc2C1	–	in the range around 550 nM
O=C(Nc1ccc(-c2n[nH]c(=O)c3ccccc23)cc1)c1c[nH]c2ncc(F)cc12	< 100 nM	–
Cc1ccc2oc(Nc3ccc(-c4n[nH]c(=O)c5ccccc45)cc3)nc2c1	< 100 nM	–
O=C(Nc1ccc(-c2n[nH]c(=O)c3ccccc23)cc1)c1nn(CC2CCNCC2)c2ccccc12	< 100 nM	–
CC(O)Cn1cc(C(=O)Nc2ccc(-c3n[nH]c(=O)c4ccccc34)cc2)cn1 (stereo not drawn)	< 100 nM	–
O=C(Nc1ccc(-c2n[nH]c(=O)c3ccccc23)c(CO)c1)c1nn(CCC2CCOCC2)c2ccccc12	< 100 nM	–
O=C(Nc1ccc(-c2n[nH]c(=O)c3ccccc23)cc1)c1cnn(C2CCCCC2)c1	< 100 nM	–
CCc1c(C(=O)Nc2ccc(-c3n[nH]c(=O)c4ccccc34)cc2)nnn1-c1cccc(Cl)c1	< 100 nM	–
